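Briefly, cells in 96-well plates were exposed to five compound concentrations for 48 h, and endpoints were estimated by linear interpolation. Abbreviation: GI50, concentration required for 50% inhibition of growth.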 Activity calls are given as the source filed them. No stated cut-off is given here; in the data, active = GI50 up to about 1.1 µM and inactive = higher.
How the values were obtained:
Assay in all cases: NCI anticancer screen, dose series, 48 h
[1] = system: DLD-1
[2] = system: DMS-114
[3] = system: DMS-273
[4] = system: HOP-18
[5] = system: KM-20L2
[6] = system: M19-MEL
[7] = system: RXF 631
[8] = system: XF498
[9] = system: SNB-78

Measured: GI50

CCCCCCCCCCCCCCCCCC(=O)NCCCNCCCNC(=O)CCCCCCCCCCCCCCCCC
inactive: [1] > 100 µM | [2] > 100 µM | [3] > 100 µM | [4] > 100 µM | [5] > 100 µM | [6] > 100 µM | [7] > 100 µM

C=CCCCN1CCCC(C)C1=S (configuration not stated)
inactive: [1] > 100 µM | [2] > 100 µM | [3] > 100 µM | [4] > 100 µM | [5] > 100 µM | [6] > 100 µM | [7] > 100 µM | [8] > 100 µM

O=[N+]([O-])c1ccc2c(c1)OCCOCCOc1ccc([N+](=O)[O-])cc1OCCOCCO2
inactive: [2] > 100 µM | [3] > 100 µM | [5] 50.9 µM | [9] > 100 µM

O=C(NCCCCCCNC(=O)c1cccc2ccccc12)c1cccc2ccccc12
inactive: [1] 59.7 µM | [2] > 100 µM | [3] 2.02 µM | [4] 24.6 µM | [5] > 100 µM | [7] 47.2 µM | [9] 5.42 µM | [8] 3.2 µM

COc1ccc2c3c(n(Cc4ccccc4)c(=O)c2c1)-c1cc(OC)c(OC)cc1C3C (configuration not stated)
inactive: [1] 50.9 µM | [2] 23 µM | [3] 7.6 µM | [4] 28.3 µM | [5] 25.6 µM | [6] 31.4 µM | [7] 15.1 µM | [9] 57.7 µM | [8] 7.96 µM

COC(=O)c1ccccc1NC(=O)C(=O)NNC(=O)c1ccncc1
inactive: [1] > 100 µM | [2] > 100 µM | [3] > 100 µM | [4] > 100 µM | [5] > 100 µM | [6] > 100 µM | [7] > 100 µM | [8] > 100 µM

Clc1ccc(C2=NOC3C4CCC(C4)C23)cc1 (configuration not stated)
inactive: [1] > 100 µM | [3] > 100 µM | [4] > 100 µM | [6] > 100 µM | [9] > 100 µM

Cc1c(C(Cc2ccccc2N(C)C(=O)/C=C\C(=O)O)c2c[nH]c3ccccc23)c2ccccc2n1C (configuration not stated)
inactive: [1] 18.2 µM | [2] 14.2 µM | [3] 17.1 µM | [5] 18.1 µM | [6] 15.7 µM | [7] 14.2 µM | [9] 21.1 µM | [8] 21 µM

CC(C)(C)c1cc(CCC(=O)Nc2ccc(Cl)cc2)nc(S)n1
inactive: [1] > 100 µM | [2] > 100 µM | [3] > 100 µM | [4] > 100 µM | [5] > 100 µM | [6] > 100 µM | [7] > 100 µM | [8] > 100 µM

CN(c1ccccc1)c1cc2ccccc2nn1
inactive: [1] > 100 µM | [2] 52.2 µM | [3] > 100 µM | [4] > 100 µM | [5] > 100 µM | [6] 59.2 µM | [7] 34.1 µM | [9] > 100 µM | [8] 67 µM

COc1ccc(/C=C2/C[N+](C)(C)C/C(=C/c3ccc(OC)cc3)C2=O)cc1
inactive: [1] 28.7 µM | [2] 13.4 µM | [3] 18.3 µM | [4] > 100 µM | [5] 50 µM | [6] 23.6 µM | [9] 38.5 µM | [8] 88.7 µM

NC(Cc1ccccc1)C(=O)OCN1C(=O)C2C3C=CC(C2C1=O)C1C2C(=O)N(COC(=O)C(N)Cc4ccccc4)C(=O)C2C31 (configuration not stated)
inactive: [1] 26.6 µM | [2] 16.1 µM | [5] 23.9 µM

CCOC(=O)NC(=O)c1cn(CC(=O)NCC(=O)NCC(=O)N2CCN(CCn3c(C)nc(C(N)=O)c3N)CC2)c(=O)[nH]c1=O
inactive: [1] > 100 µM | [2] > 100 µM | [4] > 100 µM | [5] > 100 µM | [6] > 100 µM | [7] > 100 µM | [9] > 100 µM | [8] > 100 µM

Cc1cc2c(cc1C)[n+]([O-])c(C(=O)/C=C/c1ccc(Cl)cc1)c(C)[n+]2[O-]
inactive: [1] 28.8 µM | [2] 29.1 µM | [3] 33.1 µM | [4] 25.2 µM | [5] 36.6 µM | [6] 35.3 µM | [9] > 100 µM | [8] 21.6 µM

CN(C)CCCNC(=O)N/N=C/c1cccc([N+](=O)[O-])c1
inactive: [1] > 100 µM | [2] > 100 µM | [3] > 100 µM | [4] > 100 µM | [9] > 100 µM | [8] 5.93 µM

NC(=O)N1N=C2c3ccccc3SC[C@H]2[C@@H]1c1ccccc1
inactive: [1] 21.4 µM | [2] 23.7 µM | [5] 20.2 µM | [6] 34.6 µM | [9] 33.5 µM | [8] 22 µM

[N-]=[N+]=NC1CC(n2cc(COCC(F)(F)F)c(=O)[nH]c2=O)OC1CO (configuration not stated)
inactive: [1] > 100 µM | [2] > 100 µM | [3] > 100 µM | [5] > 100 µM | [6] > 100 µM | [9] > 100 µM | [8] > 100 µM

C=C1c2[nH]c3ccccc3c2CC(C(=O)O)N1C(O)c1ccc(S(=O)(=O)O)cc1 (configuration not stated)
inactive: [1] > 100 µM | [2] > 100 µM | [3] > 100 µM | [6] > 100 µM | [7] > 100 µM | [9] > 100 µM | [8] > 100 µM

O=c1[nH]c(-c2ccccc2)nc2cc([N+](=O)[O-])c(/C(Cl)=C/c3ccccc3)cc12
inactive: [2] 35.7 µM | [3] 29.1 µM | [5] 33.7 µM | [6] 37.8 µM | [9] 35 µM

Nc1ccc2c(c1)Oc1c(F)c(F)cc3c(=O)c(C(=O)O)cn-2c13
inactive: [1] 43.9 µM | [2] > 100 µM | [4] 51.5 µM | [5] 53.6 µM | [6] 34.9 µM

[N-]=[N+]=NC(c1cn(C2CC(O)C(CO)O2)c(=O)[nH]c1=O)C(Cl)Br (configuration not stated)
inactive: [1] > 100 µM | [2] > 100 µM | [3] > 100 µM | [4] 47.2 µM | [5] > 100 µM | [6] > 100 µM | [9] > 100 µM

Cc1nc(Nc2ccc([N+](=O)[O-])cc2)sc1C(=O)/C=C/c1ccc(N(C)C)cc1
inactive: [1] 60.5 µM | [2] 59.4 µM | [3] 77.3 µM | [4] > 100 µM | [5] 73.1 µM | [6] > 100 µM | [7] > 100 µM

COc1cccc2c1C(=O)C1(O)CCCCC21 (configuration not stated)
inactive: [1] > 100 µM | [2] > 100 µM | [3] > 100 µM | [4] > 100 µM | [5] > 100 µM | [6] > 100 µM | [9] > 100 µM

Cc1ccccc1NC(=O)CC(=O)n1nc(-c2ccccc2)c(/N=N/c2ccc([N+](=O)[O-])cc2)c1-c1ccccc1
inactive: [1] 18.7 µM | [2] 10.6 µM | [3] 21 µM | [4] 16.5 µM | [5] 16.7 µM | [7] 12.4 µM | [9] 26.9 µM | [8] 21.8 µM

CC1=C(C(=O)NCc2ccccc2)C(c2ccccc2C)C(C(=O)NCc2ccccc2)=C(C)N1
inactive: [1] 20.9 µM | [2] 29.6 µM | [3] 27.5 µM | [4] > 53 µM | [5] 28.4 µM | [6] 33 µM | [7] 42.1 µM | [9] 33.6 µM

COC(=O)C(=O)C(CC(=O)Nc1ccc(C)cc1)C(=O)OC (configuration not stated)
inactive: [1] > 100 µM | [2] > 100 µM | [4] > 100 µM | [5] > 100 µM | [6] > 100 µM | [7] > 100 µM | [9] > 100 µM | [8] > 100 µM

CC(C)c1ccc2c(c1)CCC1C(C)(C)[C@@H](O)CC[C@]21C (some centres not stated)
inactive: [1] 36.6 µM | [2] 34.8 µM | [3] 31.8 µM | [5] 21.4 µM | [6] 19.4 µM | [9] 47.4 µM

CC(C)C1COC(c2cccc(C3=N[C@@H](C(C)C)CO3)n2)=N1 (some centres not stated)
inactive: [1] > 100 µM | [2] > 100 µM | [3] > 100 µM | [5] > 100 µM | [6] > 100 µM | [7] > 100 µM | [9] > 100 µM | [8] > 100 µM

COc1ccc2[nH]c3c(O)nncc3c2c1
inactive: [1] > 100 µM | [2] > 100 µM | [3] > 100 µM | [4] > 100 µM | [6] > 100 µM | [9] > 100 µM

— ChEMBL document CHEMBL1201862, “PubChem BioAssay data set” (2004)
